How the values were obtained:
Assay type in all cases: biochemical
HIV-1RT = biological target: T1, HIV-1RT (Human immunodeficiency virus type 1 group M subtype B, UniProt P04585); test: Chain elongation: addition of modified nucleotide to primer by reverse transcriptase (gel autoradiography); design: key to addition of modified nucleotide to the primer: +: slow addition of modified nucleotide to the primer; ++: good addition of modified nucleotide to the primer; -: no addition of modified nucleotide to the primer; conditions: HIV-1RT 0.13 units; modified nucleotide 100 µM; dATP, dGTP, dCTP 1.0 µM each; 37°C
T1 construct: HIV-1RT
Method: (§1) The triposphates of the modified nucleotides are synthesized as described by Kovács & Ötvös (Tetrahedron Lett. (1988), 29, […]) • 5' P^32-[…]-OH SEQ ID NO:1 • 3' HO-[…]-OH SEQ ID NP:2
(§2) A solution of template (3.0 pmol of SEQ ID NO:2) and radioactive primer (0.8 pmol of SEQ ID NO:1) in 72 µl buffer (20 mM Tris-HCl, pH 7.5; 6 mM MgCl2; 40 mM KCl; 0.5 mM DTT) are heated to 80°C and allowed to cool down to 25°C within one hour. To this solution polymerase (see table 1) is added. Aliquots of thereof are mixed with 4 µl of a solution comprising dATP, dGTP, dCTP and the modified nucleotide (see table 1), resulting in a final concentration of dATP, dGTP and dCTP as provided in table 1 and a final concentration of the modified nucleotide of 100 µM. The solutions are incubated at 37°C and the elongation reaction is stopped by addition of 5 µl of a solution of formamide comprising 5 mM EDTA (pH 8.0).
(§3) 3-5 µl of these solutions are subjected to a polyacrylamide gel (19 % acrylamide, 7 M urea). After electrophoresis the gel is transferred to a filter paper, dried and analyzed using autoradiography (see table 2).

M-MuLV RT = biological target: T2, M-MuLV RT (Moloney murine leukemia virus, UniProt P03355); test: as above; design: key: +: slow addition of modified nucleotide to the primer; ++: good addition of modified nucleotide to the primer; -: no addition of modified nucleotide to the primer; conditions: M-MuLV RT 9 units; modified nucleotide 100 µM; dATP, dGTP, dCTP 15.0 µM each; 37°C
T2 construct: M-MuLV RT
Method: as §1, §2, §3

AMV RT = test: as above; design: key: +: slow addition of modified nucleotide to the primer; ++: good addition of modified nucleotide to the primer; -: no addition of modified nucleotide to the primer; conditions: AMV RT 2.0 units; modified nucleotide 100 µM; dATP, dGTP, dCTP 0.5 µM each; 37°C
Method: as §1, §2, §3

T7 sequenase version 2 = T7 sequenase version 2 (Escherichia phage T7, UniProt P00581, DEL118-145); test: Chain elongation: addition of modified nucleotide to primer by polymerase (gel autoradiography); design: key: +: slow addition of modified nucleotide to the primer; ++: good addition of modified nucleotide to the primer; -: no addition of modified nucleotide to the primer; conditions: T7 sequenase version 2 0.13 units; modified nucleotide 100 µM; dATP, dGTP, dCTP 2.5 µM each; 37°C
T7 sequenase version 2, sequence (P00581 other isoform, or with tags, fused parts or gaps DEL118-145): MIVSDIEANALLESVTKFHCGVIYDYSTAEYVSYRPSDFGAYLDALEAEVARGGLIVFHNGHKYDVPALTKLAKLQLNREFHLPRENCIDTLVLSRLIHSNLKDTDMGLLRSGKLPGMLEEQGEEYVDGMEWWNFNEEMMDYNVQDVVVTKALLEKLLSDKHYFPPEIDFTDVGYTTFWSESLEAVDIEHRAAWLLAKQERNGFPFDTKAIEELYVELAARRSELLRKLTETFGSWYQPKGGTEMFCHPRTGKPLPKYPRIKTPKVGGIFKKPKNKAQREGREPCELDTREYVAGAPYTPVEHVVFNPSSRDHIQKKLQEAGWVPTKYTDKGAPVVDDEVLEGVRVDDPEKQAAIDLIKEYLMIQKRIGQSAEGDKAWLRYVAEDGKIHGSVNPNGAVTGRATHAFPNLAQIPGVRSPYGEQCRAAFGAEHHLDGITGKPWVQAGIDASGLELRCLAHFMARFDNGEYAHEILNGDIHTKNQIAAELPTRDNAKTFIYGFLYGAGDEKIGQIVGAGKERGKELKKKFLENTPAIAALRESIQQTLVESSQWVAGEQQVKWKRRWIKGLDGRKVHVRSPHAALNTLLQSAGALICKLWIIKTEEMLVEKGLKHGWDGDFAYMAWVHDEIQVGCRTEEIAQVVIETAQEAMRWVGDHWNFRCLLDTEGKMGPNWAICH
T7 sequenase version 2, sequence (P0AA25 2-109, stated change not applied, further chain): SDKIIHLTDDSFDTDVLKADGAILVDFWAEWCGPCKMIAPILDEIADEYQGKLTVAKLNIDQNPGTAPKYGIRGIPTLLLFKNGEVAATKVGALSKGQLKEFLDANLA
Method: as §1, §2, §3

Klenow = biological target: T3, Klenow (Escherichia coli, UniProt P00582); test: as above; design: key: +: slow addition of modified nucleotide to the primer; ++: good addition of modified nucleotide to the primer; -: no addition of modified nucleotide to the primer; conditions: Klenow 1.5 units; modified nucleotide 100 µM; dATP, dGTP, dCTP 0.5 µM each; 37°C
T3 construct: Klenow
T3 sequence (P00582 324-928): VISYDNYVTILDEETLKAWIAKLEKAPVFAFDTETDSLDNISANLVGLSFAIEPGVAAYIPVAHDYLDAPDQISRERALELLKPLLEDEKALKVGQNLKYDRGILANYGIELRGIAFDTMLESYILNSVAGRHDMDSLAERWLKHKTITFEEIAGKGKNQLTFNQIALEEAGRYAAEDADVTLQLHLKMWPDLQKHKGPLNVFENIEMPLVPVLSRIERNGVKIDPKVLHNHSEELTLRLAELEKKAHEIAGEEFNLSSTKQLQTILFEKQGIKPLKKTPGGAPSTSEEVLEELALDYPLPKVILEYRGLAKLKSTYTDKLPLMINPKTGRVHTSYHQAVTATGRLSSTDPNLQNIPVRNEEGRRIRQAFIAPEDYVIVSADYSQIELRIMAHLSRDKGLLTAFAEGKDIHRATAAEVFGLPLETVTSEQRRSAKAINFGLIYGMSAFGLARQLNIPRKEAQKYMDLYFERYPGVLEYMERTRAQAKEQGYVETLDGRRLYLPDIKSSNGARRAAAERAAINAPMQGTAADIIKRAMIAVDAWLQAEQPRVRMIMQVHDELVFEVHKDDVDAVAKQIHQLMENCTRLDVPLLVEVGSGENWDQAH
Method: as §1, §2, §3

In the case of `Cc1cn([C@H]2C[C@H](O)[C@](COP(=O)(O)OP(=O)(O)OP(=O)(O)O)(C(=O)c3ccccc3)O2)c(=O)[nH]c1=O` [R^1=C6H5], the “addition of modified nucleotide to the primer” value (shortened to “addition … to the primer”) (HIV-1RT) is reported as “++”, the “addition … to the primer” value (M-MuLV RT) is reported as “-” and the “addition … to the primer” value (AMV RT) is reported as “++”. For the same compound, the “addition … to the primer” value (T7 sequenase version 2) was “-” and the “addition … to the primer” value (Klenow) was “-”.
`Cc1cn([C@H]2C[C@H](O)[C@](COP(=O)(O)OP(=O)(O)OP(=O)(O)O)(C(=O)C(C)(C)C)O2)c(=O)[nH]c1=O` [R^1=t-butyl] was tested, and the “addition … to the primer” value (HIV-1RT) was “-”, the “addition … to the primer” value (M-MuLV RT) was “-” and the “addition … to the primer” value (AMV RT) was “-”. For the same compound, the “addition … to the primer” value (T7 sequenase version 2) was “-” and the “addition … to the primer” value (Klenow) was “-”.
For `CC(=O)[C@]1(COP(=O)(O)OP(=O)(O)OP(=O)(O)O)O[C@@H](n2cc(C)c(=O)[nH]c2=O)C[C@@H]1O` [R^1=CH3], the “addition … to the primer” value (HIV-1RT) was “++”, the “elongation after addition of modified nucleotide” value (HIV-1RT) was “elongation” and the “addition … to the primer” value (M-MuLV RT) was “++”. The “addition … to the primer” value (AMV RT) was “++”, the “addition … to the primer” value (T7 sequenase version 2) was “++” and the “addition … to the primer” value (Klenow) was “++”.
For `CCC(=O)[C@]1(COP(=O)(O)OP(=O)(O)OP(=O)(O)O)O[C@@H](n2cc(C)c(=O)[nH]c2=O)C[C@@H]1O` [R^1=CH3CH2], the “addition … to the primer” value (HIV-1RT) was “++”, the “addition … to the primer” value (M-MuLV RT) was “++” and the “addition … to the primer” value (AMV RT) was “++”. The “addition … to the primer” value (T7 sequenase version 2) was “++” and the “addition … to the primer” value (Klenow) was “+”.

Source: patent publication EP0799834A1, “Modified nucleotides” (priority 1996, dated 1997)
